How the values were obtained:
SIN3A 3′UTR = test: Dual-luciferase reporter assay (psiCHECK-2 vector with SIN3A 3′UTR) in HEK293T cells; format: cell-based; details: HEK293T cells co-transfected with psiCHECK-2 and increasing concentrations of mimic; vs Scr
Description: FIG. 5: miR-138 regulates SIN3A in a dose-dependent and site-specific manner. HEK293T cells were co-transfected with the psiCHECK-2 vector (containing the SIN3A 3′UTR) and increasing concentrations of Scr or miR-138 mimic (Scr: non-targeting control oligonucleotide). To test site-specificity, the two predicted binding sites of miR-138 on SIN3A 3′UTR cloned in the psiCHECK-2 vector were mutated and the experiment repeated. Error bars indicate mean±SE; (n=4, 3 replicates each); *P<0.01, relative to Scr.
The 3′UTR of SIN3A was cloned into the Xho1/Not1 restriction enzyme sites in the 3′UTR of Renilla luciferase in the psiCHECK™-2 vector (Promega). HEK293T cells were cotransfected with 20 ng of psiCHECK-2 vector and different concentrations of miR-138 mimic. The Lipofectamine™ RNAiMAX (Invitrogen) reverse transfection protocol was used as described above. The miR-138 binding sites on the SIN3A 3′UTR were mutated using the site-directed, ligase-independent mutagenesis (SLIM) protocol (Chiu, J., Tillett, D., Dawes, I. W. & March, P. E. Site-directed, Ligase-Independent Mutagenesis (SLIM) for highly efficient mutagenesis of plasmids greater than 8 kb. J Microbiol. Methods 73, 195-198 (2008); Chiu, J., March, P. E., Lee, R. & Tillett, D. Site-directed, Ligase-Independent Mutagenesis (SLIM): a single-tube methodology approaching 100% efficiency in 4 h. Nucleic Acids Res. 32, (2004)). […]

SIN3A = SIN3A mRNA (RT-qPCR) and protein (immunoblot) in primary human airway epithelia; format: cell-based; details: polarized primary human airway epithelia; mRNA 24 hrs, protein 72 hrs post-transfection
Description: Airway epithelia from human trachea and primary bronchus removed from organs donated for research were cultured at the air-liquid interface (ALI) (Karp, P. H. et al. An in vitro model of differentiated human airway epithelia. Methods for establishing primary cultures. Methods Mol. Biol. 188, 115-137 (2002)). These studies were approved by the Institutional Review Board of the University of Iowa. Briefly, airway epithelial cells were dissociated from native tissue by pronase enzyme digestion. Permeable membrane inserts (0.6 cm^2 Millipore-PCF, 0.33 cm^2 Costar-Polyester) pre-coated with human placental collagen (IV, Sigma) were seeded with freshly dissociated epithelia. […]
First-strand cDNA was synthesized using SuperScript® II (Invitrogen), and oligo-dT and random-hexamer primers. […] To quantitate miRNAs, TaqMan® microRNA Assays (Applied Biosystems) were obtained for miR-138, RNU48 (control) and 8 other miRNAs (negative control, miRs-21, -24, -26a, -200c, -146a, -146b, -27a*, -134). […] All experiments were performed in quadruplicate. mRNA and miRNA quantification in cell lines represents 8 independent transfections in 4 separate experiments. mRNA quantification in human primary airway epithelial cultures represent 8 independent transfections in 8 non-CF donors and 4 CF donors. […]

## miR-138 mimic: synthetic modified RNA duplex, sense SEQ ID NO: 4, antisense SEQ ID NO: 5, showing miR-138-like activity
SIN3A 3′UTR
  SIN3A expression (Renilla luciferase with SIN3A 3′UTR, normalized to firefly luciferase): repressed SIN3A expression in a dose-dependent manner
SIN3A
  SIN3A mRNA and protein levels: reduced
